Measured values reported in patent US12180139B2, “Method for preparing aminoalkanoic acid derivative containing biphenyl group” (AMTIXBIO CO., LTD., priority 2019, dated 2024).

Assays:
interleukin 6 (IL-6) = conditions: RAW264.7 cells, compound 8 μg/mL 1 hour, then LPS 1 μg/mL 24 hours; relative to LPS without compound
Method: The anti-inflammatory effects of the compounds of the present invention were evaluated using RAW264.7 cells which were stimulated to secrete interleukin 6 (IL-6). Specifically, RAW264.7 cells (obtained from Korean Cell Line Bank), mouse macrophages, were inoculated into a 12-well plate at 5×10^5 cells/well and incubated at 37° C. for 16 to 24 hours. The compounds of the present invention were added to the cell culture medium containing RAW264.7 cells incubated as above at a final concentration of 0 or 8 μg/ ? , and then incubated at 37° C. for 1 hour. Next, lipopolysaccharide (LPS, Sigma-Aldrich, USA) was further added to the medium at a final concentration of 1 μg/ ? , and the medium was incubated at 37° C. for 24 hours to induce IL-6 expression. Thereafter, IL-6 levels produced by the RAW264.7 cells were measured using an ELISA kit (Komabiotech Inc. Korea) according to the manufacturer's instructions. In Table 9, IL6 levels were expressed as a relative percentage (%) between LPS-induced IL6 levels after the treatment with the compound of the present invention and LPS-induced IL6 levels without the treatment of the compound of the present invention.

C. neoformans = conditions: RPMI1640 broth, 35° C., 72 hours, visual reading; expressed as a range value
C. albicans = conditions: RPMI1640 broth, 35° C., 48 hours, visual reading; expressed as a range value
Method: (§3) An in vitro antifungal susceptibility test was performed in accordance with the US Clinical and Laboratory Standards Institute (CLSI) guidelines to measure the degree of antifungal activity of the compounds synthesized in the Preparation Examples against opportunistic pathogenic fungi. […] The MIC value (μg/ ? ) is expressed as a range value. Specifically, Candida species and Cryptococcus neoformans were incubated in a Sabouraud dextrose agar (SDA) (Sigma-Aldrich) solid medium for 24 and 48 hours, respectively to obtain single colonies. The obtained single colonies were suspended in 0.85% physiological saline to prepare fungal cell suspension (1 to 5×10^6 cells/ ? ). Fungal cells 2000-fold diluted in RPMI1640 broth (Sigma-Aldrich) were seeded on 96-well plates (5×10^2 to 2.5×10^3 cells/ ? , 195 ? /well). Serial two-fold dilutions (128, 64, 32, 16, 8, 4, 2, 1, and 0.5 μg/ ? ) of compounds were prepared by diluting the compounds synthesized according to the above preparation examples. Then, 5 ? from each dilution was added to the well of the 96-well plate containing fungal cell suspension to give a final suspension of 200 ? per well. […] As a positive control, amphotericin B (AMB), which is highly toxic to the human body but is known as a representative antifungal agent, was used.

C. glabrata = conditions: RPMI1640 broth, 35° C., 48 hours, visual reading; expressed as a range value
Method: as §3

A. fumigatus = conditions: visual reading; expressed as a range value
Method: as §3

B. cereus (+) = assay: Antibacterial MIC test (CLSI); format: cell-based; conditions: MHB liquid medium, 37° C., 24 hours
Method: (§1) The MIC test was conducted in accordance CLSI guidelines. […] As a positive control, Nofloxacin and Vancomycin were used.

B. coagulans (+) = assay: Antibacterial MIC test (CLSI); format: cell-based; conditions: MHB liquid medium, 37° C., 24 hours
Method: as §1

B. subtilis (+) = assay: Antibacterial MIC test (CLSI); format: cell-based; conditions: MHB liquid medium, 37° C., 24 hours
Method: as §1

E. coli (−) = assay: Antibacterial MIC test (CLSI); format: cell-based; conditions: MHB liquid medium, 37° C., 24 hours
Method: as §1

L. monocytogenes (+) = assay: Antibacterial MIC test (CLSI); format: cell-based; conditions: MHB liquid medium, 37° C., 24 hours
Method: as §1

M. luteus (+) = assay: Antibacterial MIC test (CLSI); format: cell-based; conditions: MHB liquid medium, 37° C., 24 hours
Method: as §1

P. acnes (+) = assay: Antibacterial MIC test (CLSI); format: cell-based; conditions: MHB liquid medium, 37° C., 24 hours
Method: as §1

S. aureus enterica (−) = assay: Antibacterial MIC test (CLSI); format: cell-based; conditions: MHB liquid medium, 37° C., 24 hours
Method: as §1

S. aureus (+) = conditions: MHB liquid medium, 37° C., 24 hours
Method: (§2) The antibacterial activities against Gram-positive bacteria, Gram-negative bacteria or multi-drug resistant bacteria were evaluated for the compounds of the present invention. The MIC test was conducted in accordance CLSI guidelines. E. coli(−), P. aeruginosa(−), and S. enterica(−) were used as Gram-negative bacteria, B. cereus(+), B. subtilis(+), B. coagulans(+), L. monocytogenes(+), M. luteus(+), P. acnes(+), S. epidermidis(+), and S. aureus(+) were used as Gram-positive bacteria. Methicillin-resistant Staphylococcus aureus (MRSA) was used as multi-drug resistant bacteria. The bacterial cells were incubated until the OD600 of the single colonies reached 0.1. […] Subsequently, bacterial cells were incubated at 37° C. for 24 hours, and then the MICs (μg/ ? ) were determined by visual reading and optical density detection at 600 nm (OD600). As a positive control, Nofloxacin and Vancomycin were used.

S. epidermidis (+) = conditions: MHB liquid medium, 37° C., 24 hours
Method: as §2

MRSA = assay: Antibacterial MIC test (CLSI); format: cell-based, Methicillin-resistant Staphylococcus aureus; conditions: MHB liquid medium, 37° C., 24 hours
Method: as §1

| SMILES | Relative IL-6 levels (%) (interleukin 6 (IL-6)) | MIC (μg/mL) C. neoformans (C. neoformans) | MIC (μg/mL) C. albicans (C. albicans) | MIC (μg/mL) C. glabrata (C. glabrata) | MIC (μg/mL) A. fumigatus (A. fumigatus) | MIC B. cereus (+) (B. cereus (+)) [µg/mL] | MIC B. coagulans (+) (B. coagulans (+)) [µg/mL] | MIC B. subtilis (+) (B. subtilis (+)) [µg/mL] | MIC E. coli (−) (E. coli (−)) [µg/mL] | MIC L. monocytogenes (+) (L. monocytogenes (+)) [µg/mL] | MIC M. luteus (+) (M. luteus (+)) [µg/mL] | MIC P. acnes (+) (P. acnes (+)) [µg/mL] | MIC S. aureus enterica (−) (S. aureus enterica (−)) [µg/mL] | MIC S. aureus (+) (S. aureus (+)) [µg/mL] | MIC S. epidermidis (+) (S. epidermidis (+)) [µg/mL] | MIC MRSA (MRSA) [µg/mL] |
| --- | --- | --- | --- | --- | --- | --- | --- | --- | --- | --- | --- | --- | --- | --- | --- | --- |
| CCCC(C(=O)Nc1ccc(-c2ccc(Cl)c(Cl)c2)cc1)N(C)C (racemic) [Compound 36, (R)/(S)-N-(3′,4′-dichloro-[1,1′-biphenyl]-4-yl)-2-(dimethylamino)pentanamide] | 9 | 2~8 μg/mL | 4~16 μg/mL | 4~16 μg/mL | 4~16 μg/mL |  |  |  |  |  |  |  |  |  |  |  |
| CCC(NC)C(=O)NCCc1ccc(-c2ccc(Cl)c(Cl)c2)cc1.Cl (racemic) [Compound 83, (R)/(S)-N-(2-(3′,4′-dichloro-[1,1′-biphenyl]-4-yl)ethyl)-2-(methylamino)butanamide hydrochloride] | 9 | 2~8 μg/mL | 8~32 μg/mL | 8~32 μg/mL | 8~32 μg/mL |  |  |  |  |  |  |  |  |  |  |  |
| CCCC(N)C(=O)Nc1ccc(-c2ccc(OC(F)(F)F)cc2)cc1.Cl (racemic) [Compound 32, (R)/(S)-2-amino-N-(4′-(trifluoromethoxy)-[1,1′-biphenyl]-4-yl)pentanamide hydrochloride] | 16 | 2~8 μg/mL | 4~16 μg/mL | 4~16 μg/mL | 4~16 μg/mL |  |  |  |  |  |  |  |  |  |  |  |
| CCCCC(N)C(=O)NCc1ccc(-c2ccc(OC(F)(F)F)cc2)cc1.Cl (racemic) [Compound 50, (R)/(S)-2-amino-N-((4′-(trifluoromethoxy)-[1,1′-biphenyl]-4-yl)methyl)hexanamide hydrochloride] | 68 | 4~16 μg/mL | 4~16 μg/mL | 4~16 μg/mL | 4~16 μg/mL |  |  |  |  |  |  |  |  |  |  |  |
| CCCC(N)C(=O)NCCc1ccc(-c2ccc(OC(F)(F)F)cc2)cc1.Cl (racemic) [Compound 80, (R)/(S)-2-amino-N-(2-(4′-(trifluoromethoxy)-[1,1′-biphenyl]-4-yl)ethyl)pentanamide hydrochloride] | 6 | 2~8 μg/mL | 4~16 μg/mL | 4~16 μg/mL | 4~16 μg/mL |  |  |  |  |  |  |  |  |  |  |  |
| CCC(N)C(=O)Nc1ccc(-c2ccc(Cl)c(Cl)c2)cc1.Cl (racemic) [Compound 29, (R)/(S)-2-amino-N-(3′,4′-dichloro-[1,1′-biphenyl]-4-yl)butanamide hydrochloride] |  | 2~8 μg/mL | 4~16 μg/mL | 4~16 μg/mL | 4~16 μg/mL | 8 | <4 | <4 | 8 | <4 | <4 | <4 | 8 | <4 | <4 | <4 |
| CCCC(NC)C(=O)Nc1ccc(-c2ccc(Cl)c(Cl)c2)cc1.Cl (racemic) [Compound 34, (R)/(S)-N-(3′,4′-dichloro-[1,1′-biphenyl]-4-yl)-2-(methylamino)pentanamide hydrochloride] |  | 2~8 μg/mL | 4~16 μg/mL | 8~32 μg/mL | 8~32 μg/mL | 8 | <4 | <4 | 8 | <4 | <4 | <4 | 32 | <4 | <4 | <4 |
